The values that follow come from paper PMC10348910, “Epigenetic reprogramming of cell cycle genes by ACK1 promotes breast cancer resistance to CDK4/6 inhibitor” (Oncogene, 2023).

A short description of data set [1]: plasma protein binding in human plasma.
A further data set has as its system CDK1, CDK2 and WEE1 mRNA. Description: qRT-PCR of CDK1, CDK2 and WEE1. Type of data set: cell-based. To be noted: MCF-7 and MDA-MB-453; overnight. As to the method:
Real-time quantitative PCR analyses were performed using the ABI PRISM 7900HT Sequence Detection System (Applied Biosystems) as described earlier. Briefly, the PCR was carried out with SYBR Green PCR Master Mix (Applied Biosystems) using 2 µl of cDNA (or ChIP DNA) and the primers in a 20 µl final reaction mixture. Dissociation curves were generated for each plate to verify the integrity of the primers. Data were analyzed using SDS software version 2.2.2 and exported into an Excel spreadsheet. The 18S or Actin data were used for normalizing the gene values. The sequences for the primers are in Supplementary Table 12.
Supplementary Figure S9: Effect of ACK1 inhibition on CDKs and WEE1.
RNA from breast cancer cells treated with vehicle or varying concentrations of (R)-9b overnight were subjected to qRT-PCR using CDK1, CDK2 and WEE1 primers. 18S rRNA was used as housekeeping control. Data are represented as the mean ± SEM from 2 biologically independent experiments. *p<0.05, **p<0.01, ***p<0.001, unpaired two-tailed Student’s t-test.
For orientation: Real-time PCR tracks product formation cycle by cycle.

For data set [2], the system named is MDA-MB-231 lung metastasis. Description: tail vein assay of cancer metastasis. The class given is in vivo, female SCID mice. As to conditions: 24 mg/Kg, 5 days a week. The procedure: To validate the functional significance in vivo, we performed the tail vein assay of cancer metastasis. Briefly, MDA-MB-231 cells were injected in tail veins of female SCID mice and were treated with vehicle or 24 mg/Kg (R)-9b either subcutaneously or orally, for 5 days a week. The mice were euthanized and the lungs were harvested, preserved in 10% neutral buffered formalin, followed by H&E staining. Sections were examined by pathologist (C.W), and scored for metastatic nodules/deposits in 12 × 10 mm area of lung tissue.
MDA-MB-231 cells (2 × 10^5 in PBS), were injected intravenously in the lateral tail vein of female SCID mice. After 10 days, the mice were randomly chosen for treatment with either vehicle, (R)-9b (36 mg/Kg body weight) orally or subcutaneously (s.c.) (24 mg/Kg body weight) for 5 days a week, for 2 weeks. The mice were sacrificed and the lungs were harvested and fixed in 10% neutral buffered formalin. The number of metastatic foci per lung were scored in a blinded fashion by a pathologist (C.W.).

A further data set deals with ACK1 (Homo sapiens, UniProt Q07912). Description: biochemical. As to conditions: 1 uM ATP; read-out: Compound IC50 (M) ACK1.
The next data set deals with BT549. The data set can be described thus: proliferation assay, trypan blue exclusion. Type of data set: cell-based. As to conditions: BT549 (lacking Rb), 96 h. As to the method:
(§1) A–F Breast cancer cells were treated with either vehicle or (R)-9b for 48 h; cells were harvested and processed for cell cycle analysis using propidium iodide staining, followed by flow cytometry. G BT549 and H MDA-MB-468 cells were treated with varying drug concentrations of palbociclib or (R)-9b for 96 h and the cell viability assessed using trypan blue exclusion method. I BT549, and J MDA-MB-468 cells were treated with 1 µM palbociclib or (R)-9b for 48 h and subjected to cell cycle analysis using propidium iodide staining, followed by flow-cytometry. Palbociclib-resistant MDA-MB-231 (K) and HCC-1395 (L) were generated and treated with varying drug concentrations of palbociclib or (R)-9b for 96 h and the cell viability assessed using trypan blue exclusion method.
(§2) For proliferation assay, 5 × 10^4 cells were plated in 6-well plate and treated with either vehicle (DMSO) or varying concentrations of (R)-9b or palbociclib in complete media for 96 h and number of viable cells were counted by trypan blue exclusion assay. Breast cancer cell lines were treated with vehicle or varying concentrations of (R)-9b for 72 h. The cells were harvested, washed 2 times with PBS and incubated with 3 ul of Annexin V-FITC antibody according to the manufacturers protocol (BD Biosciences). Five µl Propidium iodide was used to stain necrotic cells. The cells were acquired using the BD FACSCalibur machine (BD Biosciences) and data was analyzed using FlowJo software. Cell cycle analysis was performed as mentioned earlier. Briefly, vehicle or (R)-9b (48 h) treated cells were harvested by trypsinization, washed 2 times with PBS, and fixed using chilled 70% Ethanol for 1 h, followed by 2 washes with PBS. The cell pellets were treated with 50 µl RNase A (100 µg/ml; Sigma) for 15 min at 37 °C and Propidium Iodide (PI; 50 µg/ml, Sigma) was added to these cells, followed by acquisition using BD FACS Canto-II or FACSCalibur machines. The data were analyzed using FlowJo software.

In another data set the test system is MDA-MB-468. The data set can be described thus: proliferation assay, trypan blue exclusion. The class given is cell-based. To be noted: MDA-MB-468 (lacking Rb), 96 h. As to the method:
as §1, §2

Data set [3] has as its system normal breast cells, MCF10a. Description: cell cycle analysis, propidium iodide flow cytometry. As to conditions: 48 h. The class given is cell-based. The procedure:
as §1, §2
In general terms: In flow cytometry, cells or beads pass a laser one at a time.

The test system of the next data set is breast cancer cell lines. Described as above. Type of data set: cell-based. As to conditions: 48 h. The procedure: as §1, §2

ACK1, sequence (Q07912 whole entry): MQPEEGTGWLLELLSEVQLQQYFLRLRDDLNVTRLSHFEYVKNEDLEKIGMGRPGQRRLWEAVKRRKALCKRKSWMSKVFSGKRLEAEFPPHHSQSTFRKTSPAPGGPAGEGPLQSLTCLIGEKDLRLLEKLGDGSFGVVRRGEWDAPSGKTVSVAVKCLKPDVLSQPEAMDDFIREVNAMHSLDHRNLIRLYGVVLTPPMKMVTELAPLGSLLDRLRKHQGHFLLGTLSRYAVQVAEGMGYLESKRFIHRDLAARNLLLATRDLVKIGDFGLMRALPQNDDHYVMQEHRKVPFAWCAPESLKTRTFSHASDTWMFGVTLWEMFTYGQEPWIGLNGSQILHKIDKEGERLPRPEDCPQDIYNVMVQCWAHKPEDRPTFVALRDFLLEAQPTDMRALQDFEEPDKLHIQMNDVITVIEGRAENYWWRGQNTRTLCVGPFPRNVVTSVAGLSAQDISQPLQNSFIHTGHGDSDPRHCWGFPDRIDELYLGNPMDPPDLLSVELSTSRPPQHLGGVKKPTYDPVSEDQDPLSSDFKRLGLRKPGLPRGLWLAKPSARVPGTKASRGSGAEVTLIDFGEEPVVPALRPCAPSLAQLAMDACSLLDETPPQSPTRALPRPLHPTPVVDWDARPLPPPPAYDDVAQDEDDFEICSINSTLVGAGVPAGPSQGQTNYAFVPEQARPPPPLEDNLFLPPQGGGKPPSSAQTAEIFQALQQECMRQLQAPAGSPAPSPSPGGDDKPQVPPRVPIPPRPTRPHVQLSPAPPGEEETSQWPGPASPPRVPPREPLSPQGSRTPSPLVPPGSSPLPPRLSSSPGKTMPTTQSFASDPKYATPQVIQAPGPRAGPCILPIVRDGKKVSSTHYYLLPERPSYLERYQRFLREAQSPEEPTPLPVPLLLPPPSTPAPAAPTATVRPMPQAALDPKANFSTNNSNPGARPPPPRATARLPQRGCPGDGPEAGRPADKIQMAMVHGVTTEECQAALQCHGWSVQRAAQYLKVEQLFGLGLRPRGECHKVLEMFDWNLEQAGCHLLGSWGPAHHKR

In the case of `CN1CCN(c2ccc(Nc3ncc(Cl)c(NC[C@H]4CCCO4)n3)cc2)CC1` [(R)-9b], the “remaining after 6 h of treatment” value in data set [1] (6 h) is reported as “over 96%”. The same compound gave a fraction unbound in data set [1] (human, plasma, Plasma Protein Binding (PPB)) of 0.17. In addition, the “CDK1 and 2, and WEE1 expression” value in the data set on CDK1, CDK2 and WEE1 mRNA was “affected”. Besides, the lung metastatic deposits in data set [2] ((R)-9b oral) was 2 deposits; in data set [2] ((R)-9b subcutaneous) it was “no deposits”. Moreover, the IC50 at ACK1 came out at 1.25e-08 M. Further, the “sensitivity (cell proliferation)” value in the data set on BT549 and with MDA-MB-468 was “sensitive” in each case. The cell cycle effect result is “no G2/M arrest” in data set [3]; “arrest in G2/M phase” with breast cancer cell lines (MDA-MB-453, MCF7, HCC-1395, SKBR3 and T47D); “G2/M cell cycle arrest” in the data set with breast cancer cell lines (palbociclib-resistant BT549 and MDA-MB-468 cells, 1 µM).

In general, fraction unbound refers to the share of the substance not bound to proteins or other matrix. A high value points to weak binding. For orientation: IC50 means the concentration that gives 50% inhibition.
